Test results from the NIST ThermoML archive (doi:10.1016/j.tca.2004.08.013).
Numbers after ± are expanded uncertainties.

Assay: xn = mol fraction of the nth substance listed
Settings: 101.3 kPa, Liquid

CCN(CC)CC [triethylamine] + CCC(C)=O
mass density (303.15 K, x1 = 0.011): 798.96 ± 0.69 kg/m3 | viscosity (303.15 K, x1 = 0.011): 0.362 ± 0.006 mPa·s | mass density (303.15 K, x1 = 0.0217): 798.22 ± 0.69 kg/m3 | viscosity (303.15 K, x1 = 0.0217): 0.36 ± 0.006 mPa·s | mass density (303.15 K, x1 = 0.0315): 797.6 ± 0.69 kg/m3 | viscosity (303.15 K, x1 = 0.0315): 0.357 ± 0.006 mPa·s | mass density (303.15 K, x1 = 0.0413): 796.87 ± 0.69 kg/m3 | viscosity (303.15 K, x1 = 0.0413): 0.355 ± 0.006 mPa·s | mass density (303.15 K, x1 = 0.0508): 796.32 ± 0.69 kg/m3 | viscosity (303.15 K, x1 = 0.0508): 0.353 ± 0.006 mPa·s | mass density (303.15 K, x1 = 0.0597): 795.5 ± 0.69 kg/m3 | viscosity (303.15 K, x1 = 0.0597): 0.351 ± 0.006 mPa·s | mass density (303.15 K, x1 = 0.0697): 794.8 ± 0.69 kg/m3 | viscosity (303.15 K, x1 = 0.0697): 0.347 ± 0.006 mPa·s | mass density (303.15 K, x1 = 0.0801): 794.25 ± 0.69 kg/m3 | viscosity (303.15 K, x1 = 0.0801): 0.344 ± 0.006 mPa·s | mass density (303.15 K, x1 = 0.0915): 793.37 ± 0.69 kg/m3 | viscosity (303.15 K, x1 = 0.0915): 0.341 ± 0.006 mPa·s | mass density (303.15 K, x1 = 0.1022): 792.79 ± 0.69 kg/m3 | viscosity (303.15 K, x1 = 0.1022): 0.338 ± 0.006 mPa·s

CCCNCCC [dipropylamine] + ClC(Cl)Cl
mass density (303.15 K, x1 = 0.0105): 1457.85 ± 1.3 kg/m3 | viscosity (303.15 K, x1 = 0.0105): 0.525 ± 0.008 mPa·s | mass density (303.15 K, x1 = 0.0217): 1444.32 ± 1.3 kg/m3 | viscosity (303.15 K, x1 = 0.0217): 0.531 ± 0.008 mPa·s | mass density (303.15 K, x1 = 0.0311): 1433.19 ± 1.3 kg/m3 | viscosity (303.15 K, x1 = 0.0311): 0.535 ± 0.008 mPa·s | mass density (303.15 K, x1 = 0.0411): 1421.35 ± 1.2 kg/m3 | viscosity (303.15 K, x1 = 0.0411): 0.539 ± 0.008 mPa·s | mass density (303.15 K, x1 = 0.051): 1409.85 ± 1.2 kg/m3 | viscosity (303.15 K, x1 = 0.051): 0.544 ± 0.008 mPa·s | mass density (303.15 K, x1 = 0.0608): 1398.52 ± 1.2 kg/m3 | viscosity (303.15 K, x1 = 0.0608): 0.548 ± 0.008 mPa·s | mass density (303.15 K, x1 = 0.0708): 1387.22 ± 1.2 kg/m3 | viscosity (303.15 K, x1 = 0.0708): 0.552 ± 0.008 mPa·s | mass density (303.15 K, x1 = 0.0808): 1376 ± 1.1 kg/m3 | viscosity (303.15 K, x1 = 0.0808): 0.558 ± 0.008 mPa·s | mass density (303.15 K, x1 = 0.0914): 1364.32 ± 1.1 kg/m3 | viscosity (303.15 K, x1 = 0.0914): 0.561 ± 0.008 mPa·s | mass density (313.15 K, x1 = 0.0105): 1435.95 ± 1.3 kg/m3 | viscosity (313.15 K, x1 = 0.0105): 0.473 ± 0.007 mPa·s | mass density (313.15 K, x1 = 0.0217): 1422.68 ± 1.2 kg/m3 | viscosity (313.15 K, x1 = 0.0217): 0.476 ± 0.007 mPa·s | mass density (313.15 K, x1 = 0.0311): 1411.78 ± 1.2 kg/m3 | viscosity (313.15 K, x1 = 0.0311): 0.48 ± 0.007 mPa·s | mass density (313.15 K, x1 = 0.0411): 1400.29 ± 1.2 kg/m3 | viscosity (313.15 K, x1 = 0.0411): 0.483 ± 0.007 mPa·s | mass density (313.15 K, x1 = 0.051): 1389.04 ± 1.2 kg/m3 | viscosity (313.15 K, x1 = 0.051): 0.486 ± 0.007 mPa·s | mass density (313.15 K, x1 = 0.0608): 1378.03 ± 1.1 kg/m3 | viscosity (313.15 K, x1 = 0.0608): 0.488 ± 0.007 mPa·s | mass density (313.15 K, x1 = 0.0708): 1366.94 ± 1.1 kg/m3 | viscosity (313.15 K, x1 = 0.0708): 0.492 ± 0.007 mPa·s | mass density (313.15 K, x1 = 0.0808): 1356.01 ± 1.1 kg/m3 | viscosity (313.15 K, x1 = 0.0808): 0.494 ± 0.007 mPa·s | mass density (313.15 K, x1 = 0.0914): 1344.6 ± 1.1 kg/m3 | viscosity (313.15 K, x1 = 0.0914): 0.497 ± 0.007 mPa·s

CCCN [propan-1-amine] + ClC(Cl)Cl
mass density (303.15 K, x1 = 0.01): 1463.1 ± 1.3 kg/m3 | viscosity (303.15 K, x1 = 0.01): 0.523 ± 0.008 mPa·s | mass density (303.15 K, x1 = 0.0207): 1454.77 ± 1.3 kg/m3 | viscosity (303.15 K, x1 = 0.0207): 0.526 ± 0.008 mPa·s | mass density (303.15 K, x1 = 0.0296): 1447.98 ± 1.3 kg/m3 | viscosity (303.15 K, x1 = 0.0296): 0.529 ± 0.008 mPa·s | mass density (303.15 K, x1 = 0.0426): 1437.89 ± 1.3 kg/m3 | viscosity (303.15 K, x1 = 0.0426): 0.533 ± 0.008 mPa·s | mass density (303.15 K, x1 = 0.0491): 1432.95 ± 1.3 kg/m3 | viscosity (303.15 K, x1 = 0.0491): 0.536 ± 0.008 mPa·s | mass density (303.15 K, x1 = 0.0595): 1424.84 ± 1.2 kg/m3 | viscosity (303.15 K, x1 = 0.0595): 0.539 ± 0.008 mPa·s | mass density (303.15 K, x1 = 0.0689): 1417.67 ± 1.2 kg/m3 | viscosity (303.15 K, x1 = 0.0689): 0.542 ± 0.008 mPa·s | mass density (303.15 K, x1 = 0.0796): 1409.35 ± 1.2 kg/m3 | viscosity (303.15 K, x1 = 0.0796): 0.544 ± 0.008 mPa·s | mass density (303.15 K, x1 = 0.096): 1396.86 ± 1.2 kg/m3 | viscosity (303.15 K, x1 = 0.096): 0.548 ± 0.008 mPa·s | mass density (313.15 K, x1 = 0.01): 1441.12 ± 1.3 kg/m3 | viscosity (313.15 K, x1 = 0.01): 0.474 ± 0.007 mPa·s | mass density (313.15 K, x1 = 0.0207): 1433.07 ± 1.3 kg/m3 | viscosity (313.15 K, x1 = 0.0207): 0.478 ± 0.007 mPa·s | mass density (313.15 K, x1 = 0.0296): 1426.56 ± 1.2 kg/m3 | viscosity (313.15 K, x1 = 0.0296): 0.481 ± 0.007 mPa·s | mass density (313.15 K, x1 = 0.0426): 1416.8 ± 1.2 kg/m3 | viscosity (313.15 K, x1 = 0.0426): 0.485 ± 0.007 mPa·s | mass density (313.15 K, x1 = 0.0491): 1411.95 ± 1.2 kg/m3 | viscosity (313.15 K, x1 = 0.0491): 0.488 ± 0.007 mPa·s | mass density (313.15 K, x1 = 0.0595): 1403.97 ± 1.2 kg/m3 | viscosity (313.15 K, x1 = 0.0595): 0.491 ± 0.007 mPa·s | mass density (313.15 K, x1 = 0.0689): 1396.96 ± 1.2 kg/m3 | viscosity (313.15 K, x1 = 0.0689): 0.495 ± 0.007 mPa·s | mass density (313.15 K, x1 = 0.0796): 1388.75 ± 1.2 kg/m3 | viscosity (313.15 K, x1 = 0.0796): 0.496 ± 0.007 mPa·s | mass density (313.15 K, x1 = 0.096): 1376.41 ± 1.1 kg/m3 | viscosity (313.15 K, x1 = 0.096): 0.5 ± 0.007 mPa·s

CCN(CC)CC [triethylamine] + O=[N+]([O-])c1ccccc1
mass density (303.15 K, x1 = 0.0113): 1186.81 ± 0.81 kg/m3 | viscosity (303.15 K, x1 = 0.0113): 1.59 ± 0.021 mPa·s | mass density (303.15 K, x1 = 0.0201): 1181.7 ± 0.79 kg/m3 | viscosity (303.15 K, x1 = 0.0201): 1.569 ± 0.021 mPa·s | mass density (303.15 K, x1 = 0.0288): 1176.68 ± 0.78 kg/m3 | viscosity (303.15 K, x1 = 0.0288): 1.547 ± 0.02 mPa·s | mass density (303.15 K, x1 = 0.0404): 1169.97 ± 0.77 kg/m3 | viscosity (303.15 K, x1 = 0.0404): 1.521 ± 0.02 mPa·s | mass density (303.15 K, x1 = 0.0506): 1164.25 ± 0.76 kg/m3 | viscosity (303.15 K, x1 = 0.0506): 1.499 ± 0.02 mPa·s | mass density (303.15 K, x1 = 0.0601): 1158.7 ± 0.75 kg/m3 | viscosity (303.15 K, x1 = 0.0601): 1.48 ± 0.02 mPa·s | mass density (303.15 K, x1 = 0.0688): 1153.74 ± 0.74 kg/m3 | viscosity (303.15 K, x1 = 0.0688): 1.466 ± 0.019 mPa·s | mass density (303.15 K, x1 = 0.0819): 1146.33 ± 0.72 kg/m3 | viscosity (303.15 K, x1 = 0.0819): 1.44 ± 0.019 mPa·s | mass density (303.15 K, x1 = 0.091): 1141.21 ± 0.71 kg/m3 | viscosity (303.15 K, x1 = 0.091): 1.422 ± 0.019 mPa·s | mass density (303.15 K, x1 = 0.1005): 1136.48 ± 0.7 kg/m3 | viscosity (303.15 K, x1 = 0.1005): 1.407 ± 0.019 mPa·s
